{"source": "paper PMC4912218", "about": "“Targeted metabolomics of Gammarus pulex following controlled exposures to selected pharmaceuticals in water” (The Science of the Total Environment, 2016)", "key": {"in vivo": {"assay": "in vivo", "settings": "in vivo", "experimental": "(§1) From these toxicity profiles the NOAEL and the LOAEL were determined. Exposure experiments were performed in Pyrex® beakers, each containing 200 mL of AFW at 15 °C and ten adult animals (> 5 mg wet weight, ww). Live/dead animals were counted after 24 h by gently prodding and observing movement of appendages. The pharmaceutical concentrations tested were in the range of 0.01 to 250 mg L^− 1. […] Concentrations where 100, 50 and 0% of the animals died were repeated in duplicate or triplicate."}, "[1]": {"parameters": "method as in Drugbank", "settings": "ref Drugbank; cited from earlier work"}, "Gammarus pulex": {"tested_on": "Gammarus pulex", "assay": "in vivo", "settings": "24 h, AFW, 15 °C; * = LC50 is above solubility", "experimental": "as §1"}, "Thamnocephalus platyurus": {"tested_on": "Thamnocephalus platyurus", "settings": "ref Kim et al., 2009; cited from earlier work"}}, "note": "Where a name gives a salt, the structure may show the parent alone."}
{"smiles": "Cc1ccc(C)c(OCCCC(C)(C)C(=O)O)c1", "note": "[Gemfibrozil]", "values": [{"measurement": "LC50 at 24 h", "setting": "in vivo", "value": 9.84, "unit": "µg/mL"}, {"measurement": "Water solubility", "setting": "[1]", "value": "<1000", "unit": "µg/mL"}]}
{"smiles": "CNCCC=C1c2ccccc2CCc2ccccc21", "note": "[Nortriptyline]", "values": [{"measurement": "LC50 at 24 h", "setting": "in vivo", "value": 18.9, "unit": "µg/mL"}, {"measurement": "Water solubility", "setting": "[1]", "value": 0.874, "unit": "µg/mL"}]}
{"smiles": "COCCc1ccc(OCC(O)CNC(C)C)cc1", "note": "(centres unmarked) [Metoprolol tartrate]", "values": [{"measurement": "LC50 at 24 h", "setting": "in vivo; Gammarus pulex", "value": "> 150", "unit": "µg/mL"}]}
{"smiles": "COc1cc(Cc2cnc(N)nc2N)cc(OC)c1OC", "note": "[Trimethoprin]", "values": [{"measurement": "24 h- LC50 G. pulex (present study)", "setting": "Gammarus pulex", "value": ">200", "unit": "µg/mL"}, {"measurement": "Water solubility", "setting": "[1]", "value": 400, "unit": "µg/mL"}]}
{"smiles": "CNC(=C[N+](=O)[O-])NCCSCc1ccc(CN(C)C)o1", "note": "[Ranitidine]", "values": [{"measurement": "LC50 at 24 h", "setting": "in vivo; Gammarus pulex", "value": "> 250", "unit": "µg/mL"}, {"measurement": "Water solubility", "setting": "[1]", "value": 1800, "unit": "µg/mL"}]}
{"smiles": "CC(C(=O)O)c1ccc(-c2ccccc2)c(F)c1", "note": "(centres unmarked) [Flurbiprofen]", "values": [{"measurement": "LC50 at 24 h", "setting": "in vivo; Gammarus pulex", "value": "> 8", "unit": "µg/mL"}]}
{"smiles": "O=C(O)Cc1ccccc1Nc1c(Cl)cccc1Cl", "note": "[Diclofenac, Sodium diclofenac]", "values": [{"measurement": "Water solubility", "setting": "[1]", "value": 50000, "unit": "µg/mL"}]}
{"smiles": "O=C(O)c1ccccc1O", "note": "[Salicylic acid]", "values": [{"measurement": "LC50 at 24 h", "setting": "in vivo", "value": 29.3, "unit": "µg/mL"}, {"measurement": "Water solubility", "setting": "[1]", "value": 1800, "unit": "µg/mL"}]}
{"smiles": "CC(C)(Oc1ccc(Cl)cc1)C(=O)O", "note": "[Clofibric acid]", "values": [{"measurement": "LC50 at 24 h", "setting": "in vivo", "value": "> 250", "unit": "µg/mL"}, {"measurement": "Water solubility", "setting": "[1]", "value": 582.5, "unit": "µg/mL"}]}
{"smiles": "NC(=O)N1c2ccccc2C=Cc2ccccc21", "note": "[Carbamazepine]", "values": [{"measurement": "LC50 at 24 h", "setting": "in vivo", "value": "> 112", "unit": "µg/mL"}, {"measurement": "24 h- LC50 T. platyurus", "setting": "Thamnocephalus platyurus", "value": ">100", "unit": "µg/mL"}]}
